Experimental data taken from patent publication US10047151B2, “Methods for the treatment of cancer and inflammatory diseases using cereblon as a predictor” (Celgene Corporation, priority 2011, dated 2018).

What was measured:
TNF = TNF inhibition by Compound A; type: cell-based
Jurkat IL-2 = Jurkat IL-2 induction by Compound A; type: cell-based
pRb = pRb phosphorylation in H929 cells (Western blot); type: cell-based
IRF4 [1] = experiment: IRF4 protein level in H929 cells (Western blot); type: cell-based
Description: In H929 cells, the cell cycle arrest in G1 phase by the drugs coincides with a reduction of tumor suppressor, pRb, phosphorylation and the oncogene and myeloma survival factor IRF4.

T cells = experiment: Ubiscan ubiquitinated peptide quantification in T cells; type: cell-based
Description: The effects of lenalidomide and pomalidomide on protein ubiquination were investigated using CST Ubiscan technology. Treated samples were sent to Cell Signaling Technology for ubiquinated peptide enrichment and quantification by LC/MS/MS.

H929 cells = experiment: Cell cycle progression (cells in S phase) in siRNA-transfected H929 cells; type: cell-based; details: 72 h treatment
Method: The effect of CRBN in H929 cells was also evaluated. H929 cells were transfected with mock, negative control siRNA and CRBN-siRNA-7 for 24, 48, 72 and 96 h. Cells were treated 24 h after transfection with DMSO (0.1%), pomalidomide (1 μM), lenalidomide (10 μM) or 3-(5-amino-2-methyl-4-oxo-4H-quinazolin-3-yl)-piperidine-2,6-dione (“Compound B”) for 1, 2, 3 days and the effect on cell cycle and proliferation investigated. Lenalidomide, pomalidomide and Compound B induced a delay of cell cycle progression, measured as the decrease of the number of cells in S phase, in control mock and negative control siRNA-transfected cells after 72 h treatment (FIG. 2C). Knockdown of CRBN markedly abrogated immunomodulatory drugs-induced delay in cell cycle progression in H929 cells (FIG. 2C) from of 50 to 4% for lenalidomide, from 70 to 15% for pomalidomide, and from 65 to 22% for Compound B.

[2] = test system: CARD11-BCL-10-MALT1 (CBM) complex; experiment: MALT1-induced BCL-10 cleavage (CBM complex activity) in ABC-DLBCL cells; type: cell-based; details: OCI-Ly3 cells
Method: (§1) Cells were treated with test compounds or 0.1% DMSO for indicated times. Following incubation, cells were collected, pelleted with centrifugation, and immediately lysed in 0.1 ml lysis buffer containing 10 mM Tris-HCl pH 8.0, 10 mM EDTA, 150 mM NaCl, 1% NP-40, 0.5% SDS, 1 mM DTT, 1 mM Na3VO4, plus Complete protease inhibitor cocktail (Roche Applied Science, Indianapolis, Ind.), then processed with a Qiashredder™ (Qiagen, Valencia, Calif.) for 1 minute and frozen on dry ice. Samples were diluted with 6×SDS sample buffer and then boiled for 5 min. Approximately 30 μl of this mixture was loaded per lane on a Criterion Precast 4-12% Tris-HCl gel (Bio-Rad, Hercules, Calif.), electrophoresed, and transferred to nitrocellulose membranes (Bio-Rad, Hercules, Calif.). The membranes were blocked for 1 hour at room temperature using blocking buffer (LI-COR Biosciences, Lincoln, Nebr.), then incubated overnight at 4° C. with antibodies against either BCL-10, IRF4, CRBN or β-actin. Membranes were washed and incubated with IRDye Secondary Antibodies (1:30,000) for 1 hour at room temperature. A standard protocol was then followed for signal detection, using the Odyssey® Infrared Imaging System and software (LI-COR Biosciences, Lincoln, Nebr.).
This mutation has been reported to cause constitutive formation and activation of CARD11-BCL-10-MALT1 (CBM) complex of BCR signaling pathway, leading to NF-κB overactivation in lymphoma cells. See Lenz, G., et al., Science 2008, 319: 1676-9; Thome, M. et al., Cold Spring Harb Perspect Biol. 2010; 2: a003004. To investigate the potential involvement of CBM complex in lenalidomide-induced IRF4 inhibition in these cells, the effect of lenalidomide on the complex activity was examined by measuring MALT1 paracaspase enzymatic activity. MALT1 is activated upon association with BCL-10 and CARD11 to form active CBM complex and then cleaves its binding partners, such as BCL-10.

IRF4 [3] = experiment: IRF4 protein expression in ABC-DLBCL cells (Western blot); type: cell-based; details: OCI-Ly3 cells; 1-3 day treatments
Method: as §1
To understand the molecular mechanism of lenalidomide on ABC-DLBCL cells, the effects of lenalidomide on IRF4 expression in these cells were investigated. […] Lenalidomide-induced decrease of IRF4 expression occurred as early as 1 day of drug treatment, with similar kinetics to that of the inhibitors (zVRPR-fmk and LY-333,531, respectively) of MALT1 and PKCβ, two key enzymes involved in NF-κB activation upon BCR engagement in B cells.

CRBN [4] = target: T1, CRBN (Homo sapiens, UniProt Q96SW2); experiment: Binding of compounds to CRBN
T1 sequence (Q96SW2 whole entry): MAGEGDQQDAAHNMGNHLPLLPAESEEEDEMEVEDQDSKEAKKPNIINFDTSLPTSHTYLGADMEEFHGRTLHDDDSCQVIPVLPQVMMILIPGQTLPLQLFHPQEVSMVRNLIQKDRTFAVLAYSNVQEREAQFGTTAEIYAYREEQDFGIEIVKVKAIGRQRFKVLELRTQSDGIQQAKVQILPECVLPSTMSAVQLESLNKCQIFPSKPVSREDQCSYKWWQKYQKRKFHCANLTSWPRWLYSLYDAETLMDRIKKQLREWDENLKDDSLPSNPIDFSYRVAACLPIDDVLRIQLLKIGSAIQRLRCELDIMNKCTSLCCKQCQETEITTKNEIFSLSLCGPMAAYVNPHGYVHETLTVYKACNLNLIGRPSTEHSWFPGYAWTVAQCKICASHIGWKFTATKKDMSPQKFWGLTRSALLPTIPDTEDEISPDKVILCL

U266B1 cells [5] = experiment: Cell cycle progression (cells in S phase) in siRNA-transfected U266B1 cells; type: cell-based; details: control mock and negative control siRNA-transfected cells; average of 3 days of treatment; pomalidomide 1 μM, lenalidomide 10 μM
Method: Drugs such as lenalidomide and pomalidomide have direct anti-proliferative activity against MM cells by inducing cell cycle arrest in G1 phase, followed by a decrease in viability. To study the role of CRBN in lenalidomide and other drugs anti-proliferative activities, H929 and U266B1 cells, two sensitive myeloma lines, were transfected with CRBN-siRNAs or control siRNAs for 24, 48, 72 and 96 hours. Cells were treated 24 h after transfection with DMSO (0.1%), pomalidomide (1 μM) and lenalidomide (10 μM) for 1, 2, 3 days to evaluated the compound effect on CRBN protein, mRNA expression and the effect on cell cycle and proliferation. […] CRBN down regulation was confirmed by RT-PCR and Western blot using the CRBN70 antibody (FIG. 1).
Knockdown of CRBN markedly abrogated the lenalidomide and pomalidomide-induced delay in cell cycle progression in U266B1 cells. Id.

CRBN [6] = experiment: CRBN mRNA and protein expression after drug treatment (RT-PCR, Western blot); type: cell-based; details: H929 and U266B1 cells; pomalidomide 1 μM, lenalidomide 10 μM
U266 = experiment: Ubiscan ubiquitinated peptide quantification in U266; type: cell-based
Description: The effects of lenalidomide and pomalidomide on protein ubiquination were investigated using CST Ubiscan technology. Treated samples were sent to Cell Signaling Technology for ubiquinated peptide enrichment and quantification by LC/MS/MS. […] In the MG132 combo, more ubiquinated peptides are observed (compared with their controls). […] These peptides correspond to 176 unique proteins. Top few groups are: nucleosome, chromatin, protein-DNA complex assembly, Histone H2A. Among the 176 proteins, we found five proteins that belong to “ubiquitin-protein ligase activity” category, they are MDM2, HERC2, UBE2D3 (only by pomalidomide), UBE2N (lenalidomide only), UBE2M (both). Results for hits categorized by conditions are shown in FIGS. 8 & 9 (without MG132) and FIGS. 10 & 11 (with MG132).

poly-ubiquitin chains = experiment: Global polyubiquitination by immunofluorescence in H929 cells; type: cell-based; details: 1 μM, 30 minutes
Method: Specific antibodies for poly-ubiquitin chains were used to study the effect of immunomodulatory drugs on global levels of ubiquitination. H929 cells were treated with lenalidomide (1 μM), pomalidomide (1 μM) or proteasome inhibitor MG132. After 30 minutes cells were process for immunofluorescence. Global levels of K63-linked polyubiquitination were quantified by Cellomics.

U266B1 cells [7] = experiment: Gene expression profile by microarray in U266B1 cells; type: cell-based; details: negative control siRNA-transfected U266B1 cells; pomalidomide 1 μM, lenalidomide 10 μM; ±1.7 fold, P<0.05
Method: Gene expression profile using microarray technology identified 759 or 609 genes differentially modulated in negative control siRNA-transfected U266B1 cells treated with pomalidomide (1 μM) or lenalidomide (10 μM) compared to DMSO treated control (±1.7 fold; P<0.05 ANOVA p-value) (FIGS. 5A & 5B).

p21^WAF-1 = experiment: p21WAF-1 mRNA and protein levels in U266B1 cells; type: cell-based; details: U266B1, control mock and negative control siRNA-transfected cells; pomalidomide 1 μM, lenalidomide 10 μM
Method: To further investigate the effects of CRBN on the cell cycle arrest induced by drugs we used RT-PCR and Western blot analysis to measure the levels of key cell cycle and apoptotic regulators. U266B1 cells were transfected with mock, negative control siRNA, CRBN-siRNA-7 and CRBN-siRNA-11 for 24, 48, 72 and 96 h (FIG. 3A). Cells were treated 24 h after transfection with DMSO (0.1%), pomalidomide (1 μM) and lenalidomide (10 μM) for 1, 2, 3 days and the effect on mRNA and protein levels of the cyclin-dependent kinase (CDK) inhibitor p21^WAF-1 were evaluated. It has been shown that lenalidomide- and pomalidomide-induced cell cycle arrest is dependent on up-regulation of p21^WAF-1 in […]. […] However, knockdown of CRBN prevents the induction of p21^WAF-1 indicating the successful abrogation of G1 arrest and renewal of S phase progression (FIGS. 3C & 3D).

CRBN [8] = target: T1, CRBN; experiment: Denaturing immunoblot with CGN-6-4-5; type: binding; parameters: endogenous in cells; host or cells: DF15 myeloma cells (endogenous); HEK293 cells expressing recombinant flag-tagged CRBN on the same blot
Method: CGN-6-4-5 was diluted 1:10,000 dilution in 0.1% Tween PBS buffer. An exemplary immunoblot with myeloma cells containing endogenous CRBN (DF15), DF15R with no CRBN and HEK293 cells expressing recombinant flag-tagged CRBN is shown in FIG. 38. Peptide neutralization was performed by combining antibody with a five-fold (by weight) excess of blocking peptide in 500 μl PBS and incubating with constant rotation at room temperature for 2 hours.

[9] = H929 cells with knockdown of CRBN
[10] = control mock and negative control siRNA-transfected H929 cells

Molecule: Cl.NCCC(=O)NCc1cccc2c1C(=O)N(C1CCC(=O)NC1=O)C2=O (stereo not drawn) [Compound A]
- IC50 (TNF): 622 nM
- Jurkat IL-2 EC200 (Jurkat IL-2): 3.47 µM

Molecule: Cc1nc2cccc(N)c2c(=O)n1C1CCC(=O)NC1=O (stereo not drawn) [Compound B, 3-(5-amino-2-methyl-4-oxo-4H-quinazolin-3-yl)-piperidine-2,6-dione]
- phosphorylation of pRB (pRb): decreased
- total level of protein IRF4 (IRF4 [1]): decreased
- Ub-proteins increased in abundance (T cells): IKZF3, RPL19, PCM1 and NEDD8
- proteins decreased in abundance (T cells): GNB2L1 and HNRNPR
- ubiquinated peptides of greater abundance vs. DMSO control (T cells): SECTM1 and ZC3H15
- delay in cell cycle progression (decrease of the number of cells in S phase) (H929 cells; [9]): 22%
- delay in cell cycle progression (decrease of the number of cells in S phase) (H929 cells; [10]): 65%

Molecule: CN(C)C[C@@H]1CCn2cc(c3ccccc32)C2=C(C(=O)NC2=O)c2cn(c3ccccc23)CCO1 [PKCβ inhibitor, LY-333,531]
- BCL-10 cleavage [2]: neither the PKCβ inhibitor nor lenalidomide had any effect
- IRF4 levels (IRF4 [3]): neither lenalidomide nor the PKCβ inhibitor had any appreciable effect

Molecule: C[C@]1(N2C(=O)c3cccc(N)c3C2=O)CCC(=O)NC1=O [S-methyl-pomalidomide]
- affinity for CRBN (enantiomers compared) (CRBN [4]): greater affinity for CRBN than R-methyl-pomalidomide

Molecule: Nc1cccc2c1C(=O)N(C1CCC(=O)NC1=O)C2=O (stereo not drawn) [pomalidomide, 4-amino-2-(2,6-dioxopiperidin-3-yl)-1H-isoindole-1,3-dione]
- delay of cell cycle progression, measured as the decrease of the number of cells in S phase (U266B1 cells [5]): 50%
- mRNA and protein expression of CRBN (CRBN [6]): affected neither mRNA nor protein expression of CRBN significantly
- Ub-proteins increased in abundance (U266): IKZF3, RPL19, PCM1 and NEDD8
- proteins decreased in abundance (U266): GNB2L1 and HNRNPR
- phosphorylation of pRB (pRb): decreased
- total level of protein IRF4 (IRF4 [1]): decreased
- K-63-linked ubiquitination (poly-ubiquitin chains): but not K-63-linked ubiquitination
- total K48-linked polyubiquitination (poly-ubiquitin chains): decrease
- genes differentially modulated compared to DMSO treated control (U266B1 cells [7]): 759 genes
- p21 level (p21^WAF-1): up-regulated
- delay in cell cycle progression (decrease of the number of cells in S phase) (H929 cells; [9]): 15%
- delay in cell cycle progression (decrease of the number of cells in S phase) (H929 cells; [10]): 70%

Molecule: O=C1NC(=O)c2ccccc21 [pthalimide]
- binding to CRBN (CRBN [4]): did not

Molecule: zVRPR-fmk [MALT1 inhibitor]
- IRF4 levels (IRF4 [3]): complete inhibition

B1: CGN-6-4-5: rabbit monoclonal anti-CRBN antibody, heavy chain SEQ ID NO:9, light chain SEQ ID NO:11 (antibody)
heavy: METGLRWLLLVAVLKGVQCQSVEESGGRLVTPGTPLTLTCTVSGFSLSRYGVSWVRQAPGKGLEHIGYIYSDPGMTFYATWAKGRFTISKTSSTTVDLKMTSPTIEDTATYFCARGTPLASYSTWGPGTLVTISLGQPKAPSVFPLAPCCGDTPSSTVTLGCLVKGYLPEPVTVTWNSGTLTNGVRTFPSVRQSSGLYSLSSVVSVTSSSQPVTCNVAHPATNTKVDKTVAPSTCSKPTCPPPELLGGPSVFIFPPKPKDTLMISRTPEVTCVVVDVSQDDPEVQFTWYINNEQVRTARPPLREQQFNSTIRVVSTLPIAHQDWLRGKEFKCKVHNKALPAPIEKTISKARGQPLEPKVYTMGPPREELSSRSVSLTCMINGFYPSDISVEWEKNGKAEDNYKTTPAVLDSDGSYFLYSKLSVPTSEWQRGDVFTCSVMHEALHNHYTQKSISRSPGK
light: MDTRAPTQLLGLLLLWLPGATFAQVLTQTPASVSAAVGGTVTINCQSSENIYKNNYLSWFQQKPGQPPKLLIYQASTLASGVPSRFKGSGSGTRFSLTISDLECDDAATYYCAGGYSGNIFTFGGGTEVVVKGDPVAPTVLIFPPAADQVATGTVTIVCVANKYFPDVTVTWEVDGTTQTTGIENSKTPQNSADCTYNLSSTLTLTSTQYNSHKEYTCKVTQGTTSVVQSFNRGDC
- recognition of CRBN on denaturing immunoblots (CRBN [8]): specifically recognizes the full-length 51 kDa human CRBN protein
